Test results reported in the supplement of paper PMC10307832.

Columns and labels:
Assay in all cases: relative viability (nuclei count vs DMSO), 5 days (fraction); higher = more cells survive
[1] = tested on: A-427
How it was run: (§1)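 One day after seeding in 1536-well plates, lung cancer cell lines were dosed by pin tool. Dosing was either single-drug or a fixed anchor-drug dose plus five library-drug doses (not always all listed) in √10 steps. After 5 days, nuclei were stained in one fix-and-stain step and counted on 4× images, and relative viability is the nuclei count of treated wells over that of vehicle wells, given as the median of duplicate plates.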

[2] = tested on: ABC-1
How it was run: as §1

[3] = tested on: CAL-12T
How it was run: as §1

[4] = tested on: H3255
How it was run: as §1

[5] = tested on: NCI-H1355
How it was run: as §1

[6] = tested on: NCI-H1437
How it was run: as §1

[7] = tested on: NCI-H1651
How it was run: as §1

[8] = tested on: NCI-H1666
How it was run: as §1

[9] = tested on: NCI-H1793
How it was run: as §1

[10] = tested on: NCI-H2009
How it was run: as §1

[11] = tested on: NCI-H2023
How it was run: as §1

[12] = tested on: NCI-H2087
How it was run: as §1

[13] = tested on: NCI-H23
How it was run: as §1

[14] = tested on: NCI-H358
How it was run: as §1

[15] = tested on: NCI-H522
How it was run: as §1

[16] = tested on: NCI-H596
How it was run: as §1

[17] = tested on: NCI-H727
How it was run: as §1

[18] = tested on: NCI-H838
How it was run: as §1

[19] = tested on: PC-14
How it was run: as §1

[20] = tested on: SK-MES-1
How it was run: as §1

[21] = tested on: SW 1573
How it was run: as §1

[22] = tested on: UMC-11
How it was run: as §1

C=C1C(=O)O[C@@H](CCCCCCCC)[C@@H]1C(=O)O [C-75] + O=C(CCCCCCC(=O)Nc1ccccc1)NO [Vorinostat] (partner 1 µM)
relative viability ([1]; first compound 0.08 µM): 0.851 | relative viability ([1]; first compound 0.253 µM): 0.822 | relative viability ([1]; first compound 0.8 µM): 0.615 | relative viability ([1]; first compound 2.53 µM): 0.755 | relative viability ([1]; first compound 8 µM): 0.852 | relative viability ([2]; first compound 0.08 µM): 1.32 | relative viability ([2]; first compound 0.253 µM): 1.18 | relative viability ([2]; first compound 0.8 µM): 0.547 | relative viability ([2]; first compound 2.53 µM): 0.805 | relative viability ([2]; first compound 8 µM): 0.649 | relative viability ([3]; first compound 0.08 µM): 0.721 | relative viability ([3]; first compound 0.253 µM): 1.12 | relative viability ([3]; first compound 0.8 µM): 0.918 | relative viability ([3]; first compound 2.53 µM): 0.674 | relative viability ([3]; first compound 8 µM): 0.89 | relative viability ([4]; first compound 0.08 µM): 0.846 | relative viability ([4]; first compound 0.253 µM): 0.621 | relative viability ([4]; first compound 0.8 µM): 0.79 | relative viability ([4]; first compound 2.53 µM): 0.627 | relative viability ([4]; first compound 8 µM): 0.732 | relative viability ([5]; first compound 0.08 µM): 0.643 | relative viability ([5]; first compound 0.253 µM): 0.696 | relative viability ([5]; first compound 0.8 µM): 0.67 | relative viability ([5]; first compound 2.53 µM): 0.52 | relative viability ([5]; first compound 8 µM): 0.639 | relative viability ([6]; first compound 0.08 µM): 0.866 | relative viability ([6]; first compound 0.253 µM): 0.98 | relative viability ([6]; first compound 0.8 µM): 0.733 | relative viability ([6]; first compound 8 µM): 0.717 | relative viability ([7]; first compound 0.08 µM): 0.55 | relative viability ([7]; first compound 0.253 µM): 0.58 | relative viability ([7]; first compound 0.8 µM): 0.525 | relative viability ([7]; first compound 2.53 µM): 0.522 | relative viability ([7]; first compound 8 µM): 0.509 | relative viability ([8]; first compound 0.08 µM): 1.05 | relative viability ([8]; first compound 0.253 µM): 1.3 | relative viability ([8]; first compound 0.8 µM): 0.895 | relative viability ([8]; first compound 8 µM): 0.913 | relative viability ([9]; first compound 0.08 µM): 0.674 | relative viability ([9]; first compound 0.253 µM): 1.01 | relative viability ([9]; first compound 2.53 µM): 0.425 | relative viability ([9]; first compound 8 µM): 0.751 | relative viability ([10]; first compound 0.08 µM): 0.764 | relative viability ([10]; first compound 0.253 µM): 0.668 | relative viability ([10]; first compound 0.8 µM): 0.469 | relative viability ([10]; first compound 2.53 µM): 0.783 | relative viability ([10]; first compound 8 µM): 0.715 | relative viability ([11]; first compound 0.08 µM): 0.653 | relative viability ([11]; first compound 0.253 µM): 0.944 | relative viability ([11]; first compound 0.8 µM): 0.604 | relative viability ([11]; first compound 2.53 µM): 0.6 | relative viability ([11]; first compound 8 µM): 0.37 | relative viability ([12]; first compound 0.08 µM): 0.683 | relative viability ([12]; first compound 0.253 µM): 0.586 | relative viability ([12]; first compound 0.8 µM): 0.666 | relative viability ([12]; first compound 2.53 µM): 0.635 | relative viability ([12]; first compound 8 µM): 0.541 | relative viability ([13]; first compound 0.08 µM): 0.605 | relative viability ([13]; first compound 0.253 µM): 0.642 | relative viability ([13]; first compound 0.8 µM): 0.497 | relative viability ([13]; first compound 2.53 µM): 0.366 | relative viability ([13]; first compound 8 µM): 0.407 | relative viability ([14]; first compound 0.08 µM): 0.704 | relative viability ([14]; first compound 0.253 µM): 0.789 | relative viability ([14]; first compound 0.8 µM): 0.689 | relative viability ([14]; first compound 8 µM): 0.608 | relative viability ([15]; first compound 0.08 µM): 0.912 | relative viability ([15]; first compound 0.253 µM): 0.811 | relative viability ([15]; first compound 0.8 µM): 0.905 | relative viability ([15]; first compound 2.53 µM): 0.655 | relative viability ([15]; first compound 8 µM): 0.868 | relative viability ([16]; first compound 0.08 µM): 0.644 | relative viability ([16]; first compound 0.253 µM): 0.642 | relative viability ([16]; first compound 0.8 µM): 0.671 | relative viability ([16]; first compound 2.53 µM): 0.516 | relative viability ([16]; first compound 8 µM): 0.483 | relative viability ([17]; first compound 0.08 µM): 1.22 | relative viability ([17]; first compound 0.253 µM): 1.31 | relative viability ([17]; first compound 0.8 µM): 0.973 | relative viability ([17]; first compound 2.53 µM): 1.18 | relative viability ([17]; first compound 8 µM): 1.23 | relative viability ([18]; first compound 0.08 µM): 0.761 | relative viability ([18]; first compound 0.253 µM): 0.669 | relative viability ([18]; first compound 0.8 µM): 0.726 | relative viability ([18]; first compound 2.53 µM): 0.648 | relative viability ([18]; first compound 8 µM): 0.663 | relative viability ([19]; first compound 0.08 µM): 0.721 | relative viability ([19]; first compound 0.253 µM): 0.741 | relative viability ([19]; first compound 0.8 µM): 0.63 | relative viability ([19]; first compound 2.53 µM): 0.61 | relative viability ([19]; first compound 8 µM): 0.717 | relative viability ([20]; first compound 0.08 µM): 1.08 | relative viability ([20]; first compound 0.253 µM): 1.12 | relative viability ([20]; first compound 0.8 µM): 1.06 | relative viability ([20]; first compound 2.53 µM): 1.04 | relative viability ([20]; first compound 8 µM): 1.1 | relative viability ([21]; first compound 0.08 µM): 0.976 | relative viability ([21]; first compound 0.253 µM): 0.816 | relative viability ([21]; first compound 0.8 µM): 0.701 | relative viability ([21]; first compound 2.53 µM): 0.442 | relative viability ([21]; first compound 8 µM): 0.517 | relative viability ([22]; first compound 0.08 µM): 0.38 | relative viability ([22]; first compound 0.253 µM): 0.497 | relative viability ([22]; first compound 0.8 µM): 0.343 | relative viability ([22]; first compound 2.53 µM): 0.257 | relative viability ([22]; first compound 8 µM): 0.294
